Measurements from article PMC9356275, “A quantitative high-throughput screen identifies compounds that lower expression of the SCA2-and ALS-associated gene ATXN2” (The Journal of Biological Chemistry, 2022).
Where a name gives a salt, the structure may show the parent alone. Read-outs that look alike come from different tables or passages of the source.

Legend:
Assay type in all cases: cell-based, human
ATXN2-luc [1] = experiment: MSSR pilot screen: ATXN2-luc luciferase assay (Bright-Glo) in H2 cells, single 10 μM dose; settings: for SD from mean (ATXN2-luc, Z-score): H2 cells, single dose (title: 10 μM compound), overnight; for ¦Score/1SD¦: absolute score divided by 1SD (0.891 or 0.9)
ATXN2-luc [2] = experiment: MSSR hit retest: ATXN2-luc luciferase assay, average of H2 and S1 cells (1 and 10 uM); settings: Homo sapiens; for activity at 1 µM: read-out: H2&S1 ave luc 1uM; for activity at 10 µM: head line r3 10uM; for activity at 10 µM / activity: read-out: H2&S1 ave luc 10uM
Description: (§1) Supplement mmc2.xlsx, sheet "43 annotated compounds"

H2 and S1 cells = experiment: Paired MTT viability assay, average of H2 and S1 cells (1 and 10 uM); settings: Homo sapiens
Description: as §1

ATXN2-luc [3] = experiment: Secondary assays: ATXN2-luc in S2 and H2 cells, 12 doses, Bright-Glo; settings: Homo sapiens; H2 and S2 values used as replicates, 24 h; read-out: IC50 for lowering ATXN2-luc
Method: The values for H2 and S2 were used as replicates to calculate IC50s and to assess cell viability.
Compounds were plated at 2× concentrations in phenol red–free DMEM in 25 μl in 384-well plates with each compound dose plated in triplicate. An equal volume of S2, H2, or SC cells (24,000 cells/well) suspended in phenol red–free DMEM with 10% fetal bovine serum and 1× penicillin/streptomycin were added. Cells were grown 24 h and then assayed first by using the CellTiter-Fluor reagent (20 μl) followed by the addition of Bright-Glo (65 μl) luciferase assay, using a multimode plate reader (Beckman; DT880). Values were reported as the mean ± SD with n = 3. IC50s were determined by the Hill coefficient method using an online tool (https://www.aatbio.com/tools/ic50-calculator).

ATXN2-luc [4] = experiment: NCATS qHTS (LOPAC pilot, primary and confirmation): ATXN2-luc in S2 cells, 1536-well, Steady-Glo; settings: LOPAC library screening optimization; for AC50: Homo sapiens
Method: We next performed a pilot screen assay to optimize the 1536-well qHTS using S2 cells. […] Cytotoxicity was determined using a multiplexed viability assay (CellTiter-Fluor, a fluorescence-based viability assay using Gly-Phe-7-amino-4-trifluoromethylcoumarin substrate).
CellTiter-Fluor was used to determine compound effect on cell viability, and Steady-Glo was used to measure luciferase in a multiplexed assay.
The primary assay was conducted at the NCATS NIH Chemical Genomics Center laboratory. About 4 μl of S2 cell suspension in phenol red–free DMEM was dispensed into wells of 1536-well assay plates. […] Next, SteadyGlo luciferase substrate detection reagent (3 μl) was added to each well and incubated for an additional 5 min at room temperature. Luminescence was then measured on the ViewLux imager equipped with clear filters using a 2 s exposure. All screening operations were performed on a fully integrated robotic system (Kalypsys) containing one RX-130 and two RX-90 anthropomorphic robotic arms (Stäubli). Vehicle-only plates, with DMSO being pin-transferred to columns 5 to 48, were inserted uniformly at the beginning and the end of each library in order to monitor and record any shifts in assay performance.

[5] = pilot screen at 10 µM compound, H2 cells expressing ATXN2-luc
[6] = 1 uM compound, average of H2 and S1 cells
[7] = 1 uM compound, read-out: H2&S1 ave MTT 1uM
[8] = 10 uM compound, read-out: H2&S1 ave MTT 10uM
[9] = pilot screen, H2 cells expressing ATXN2-luc, single dose printed as 10 μM compound
[10] = read-out: H2&S1 ave MTT 1uM, 1 uM compound
[11] = read-out: H2&S1 ave MTT 10uM, 10 uM compound

SMILES | SD from mean (ATXN2-luc, Z-score) (ATXN2-luc [1]) | SD from mean (pilot screen) (ATXN2-luc [1]; pilot screen) | SD from mean (pilot screen) (ATXN2-luc [1]; [5]) | ¦Score/1SD¦ (ATXN2-luc [1]; pilot screen) | activity at 1 µM (ATXN2-luc [2]; [6]) | activity at 10 µM (ATXN2-luc [2]; average of H2 and S1 cells) | viability at 1 µM (H2 and S1 cells; [7]) | viability at 10 µM (H2 and S1 cells; [8]) | SD from mean (pilot screen) (ATXN2-luc [1]; [9]) | activity at 1 µM (ATXN2-luc [2]) | activity (ATXN2-luc [2]) | viability at 1 µM (H2 and S1 cells; [10]) | viability at 10 µM (H2 and S1 cells; [11]) | IC50 (ATXN2-luc [3]) | AC50 (ATXN2-luc [4]; logarithm of AC50 (negative values), read-out: Log AC50 (converted)) | AC50 (ATXN2-luc [4]; read-out: AC50) | Efficacy (ATXN2-luc [4]; curve-fit parameter) | Inf Activity (ATXN2-luc [4]; curve-fit parameter)
C[C@]12CC[C@H](O)C[C@H]1CC[C@@H]1[C@@H]2CC[C@]2(C)[C@@H](C3=CC(=O)OC3)CC[C@]12O [Digitoxigenin] | -3.629 SD | -3.629 SD | -3.629 | 4.07 | 38% | 13% | 81.6% | 74.8% |  |  |  |  |  |  |  |  |  | 
CO[C@H]1C[C@H](O[C@H]2CC[C@]3(C)[C@H]4CC[C@]5(C)[C@@H](C6=CC(=O)OC6)CC[C@]5(O)[C@@H]4CC[C@]3(O)C2)O[C@H](C)[C@H]1O [PERIPLOCYMARIN] | -2.759 SD | -2.759 SD |  | 3.07 |  |  |  |  | -2.759 | 75% | 17% | 58.7% | 37.1% |  |  |  |  | 
CC(=O)Oc1cccc(O)c1 [RESORCINOL MONOACETATE] | -6.242 SD | -6.242 SD | -6.242 | 6.94 | 120% | 4.6% | 115% | 19.9% |  |  |  |  |  |  |  |  |  | 
C[C@H]1O[C@@H](O[C@H]2[C@@H](O)C[C@H](O[C@H]3[C@@H](O)C[C@H](O[C@H]4CC[C@@]5(C)[C@H](CC[C@@H]6[C@@H]5CC[C@]5(C)[C@@H](C7=CC(=O)OC7)CC[C@]65O)C4)O[C@@H]3C)O[C@@H]2C)C[C@H](O)[C@@H]1O [DIGITOXIN] | -4.100 SD | -4.100 SD | -4.100 | 4.56 |  |  |  |  |  | 27% | 19% | 34.3% | 49.1% |  |  |  |  | 
CO[C@H]1[C@H](O)[C@H](O[C@H]2CC[C@@]3(C)[C@H](CC[C@@H]4[C@@H]3CC[C@]3(C)[C@@H](C5=CC(=O)OC5)CC[C@]43O)C2)O[C@@H](C)[C@@H]1O [NERIIFOLIN] | -3.045 SD | -3.045 SD |  | 3.38 |  |  |  |  | -3.045 | 17% | 17% | 30.8% | 36.1% |  |  |  |  | 
CC(C)c1cc(-c2n[nH]c(=O)n2-c2ccc3c(ccn3C)c2)c(O)cc1O [ganetespib] |  |  |  |  |  |  |  |  |  |  |  |  |  | 30 nM |  |  |  | 
CC(C)=CCc1c(O)cc2occ(-c3ccc4c(c3)OCO4)c(=O)c2c1O [DERRUBONE] | -3.621 SD | -3.621 SD | -3.621 | 4.02 | 11% | 15% | 107% | 101% |  |  |  |  |  |  |  |  |  | 
CO[C@H]1C[C@H](O[C@H]2CC[C@]3(C=O)[C@H]4CC[C@]5(C)[C@@H](C6=CC(=O)OC6)CC[C@]5(O)[C@@H]4CC[C@]3(O)C2)O[C@H](C)[C@H]1O [CYMARIN] | -4.099 SD | -4.099 SD | -4.099 | 4.55 |  |  |  |  |  | 14% | 16% | 54.2% | 59.3% |  |  |  |  | 
C[n+]1cc2c3c(ccc2c2ccc4cc5c(cc4c21)OCO5)OCO3 [Sanguinarine] | -2.689 SD | -2.689 SD |  | 3.02 |  |  |  |  | -2.689 | 127% | 160% | 103% | 114% |  |  |  |  | 
CC[C@H]1CN2CCc3cc(OC)c(OC)cc3[C@@H]2C[C@@H]1C[C@H]1NCCc2cc(OC)c(OC)cc21 [Emetine dihydrochloride] | -4.840 SD | -4.840 SD | -4.840 | 5.43 | 18% | 19% | 59.7% | 58.1% |  |  |  |  |  |  |  |  |  | 
CC(=O)O[C@H]1CC[C@@]2(C)[C@H](CC[C@@H]3[C@@H]2CC[C@]2(C)[C@@H](C4=CC(=O)OC4)[C@@H](OC(C)=O)C[C@]32O)C1 [GITOXIGENIN DIACETATE] | -4.261 SD | -4.261 SD | -4.261 | 4.73 |  |  |  |  |  | 27% | 21% | 39.7% | 40.3% |  |  |  |  | 
C[C@]12CC[C@H](O)C[C@H]1CC[C@@H]1[C@@H]2[C@H](O)C[C@]2(C)[C@@H](C3=CC(=O)OC3)CC[C@]12O [SARMENTOGENIN] | -3.539 SD | -3.539 SD |  | 3.93 |  |  |  |  | -3.539 | 53% | 24% | 45.8% | 41.2% |  |  |  |  | 
C[C@@H]1O[C@@H](O[C@H]2C[C@@H](O)[C@]3(CO)[C@@H]4[C@@H](O)C[C@]5(C)[C@H](C6=CC(=O)OC6)CC[C@@]5(O)[C@H]4CC[C@@]3(O)C2)[C@H](O)[C@H](O)[C@@H]1O.O.O.O.O.O.O.O.O [Strophantine octahydrate] | -3.624 SD |  |  |  |  |  |  |  |  |  |  |  |  |  | 89.1 nM | 89.1 nM | -95.9071 | -89.7119
C[C@H]1O[C@@H](O[C@H]2[C@@H](O)C[C@H](O[C@H]3[C@@H](O)C[C@H](O[C@H]4CC[C@@]5(C)[C@H](CC[C@@H]6[C@@H]5CC[C@]5(C)[C@@H](C7=CC(=O)OC7)[C@@H](O)C[C@]65O)C4)O[C@@H]3C)O[C@@H]2C)C[C@H](O)[C@@H]1O [GITOXIN] | -4.086 SD | -4.086 SD | -4.086 | 4.54 | 21% | 12% | 28.7% | 40.3% |  |  |  |  |  |  |  |  |  | 
C[C@]12CC[C@H]3[C@@H](CC[C@]4(O)C[C@@H](O)CC[C@]34C=O)[C@@]1(O)CC[C@@H]2C1=CC(=O)OC1 [STROPHANTHIDIN] |  | -4.451 SD | -4.451 | 4.95 |  |  |  |  |  | 16% | 15% | 40.1% | 45.5% |  |  |  |  | 
